# According to US8084479B2, “Thiazole compounds and methods of use” (Amgen Inc., priority 2006, dated 2011):
# Molecular target: PKBα (Homo sapiens, UniProt P31749)
# Assay: PKB kinase assay (P33-labeled ATP, peptide substrate, filter plate)
# Format: biochemical
# Details: PKBα enzyme (full length or kinase domain with pleckstrin domain deleted)
# From the text: The kinase assay for evaluating PKB activity comprises active PKB enzymes, a PKB specific substrate, and P^33-labeled ATP. […] The phosphorylated substrate was captured by a phosphocellulose membrane filter plate (MLLIPORE) and measured by a Wallac Microbeta liquid scintillation counter (Perkin Elmer).
# PKBα, sequence (P31749 118-480 limits assumed): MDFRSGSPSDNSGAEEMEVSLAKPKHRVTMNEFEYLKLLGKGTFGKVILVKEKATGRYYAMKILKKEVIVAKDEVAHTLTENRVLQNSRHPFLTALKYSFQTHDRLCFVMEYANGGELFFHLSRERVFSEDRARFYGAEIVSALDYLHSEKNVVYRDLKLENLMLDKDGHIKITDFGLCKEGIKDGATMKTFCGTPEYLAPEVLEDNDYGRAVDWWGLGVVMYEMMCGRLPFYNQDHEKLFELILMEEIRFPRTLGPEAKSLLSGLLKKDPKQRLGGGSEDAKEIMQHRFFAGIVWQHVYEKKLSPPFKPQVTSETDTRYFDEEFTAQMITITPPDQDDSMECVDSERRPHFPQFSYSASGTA
row,IC50,SMILES
1,50 to 1000 nM,"N[C@H](CNc1nc(C#CC2(O)CCCC2)c(-c2ccc3cnccc3c2)s1)Cc1ccc(C(F)(F)F)cc1 [Example 148, 1-(2-(2-((S)-2-amino-3-(4-(trifluoromethyl)phenyl)propylamino)-5-(isoquinolin-6-yl)thiazol-4-yl)ethynyl)cyclopentanol]"
2,50 to 1000 nM,"N[C@H](CNc1ncc(-c2ccc3[nH]c(=O)[nH]c3c2)s1)Cc1ccc(C(F)(F)F)cc1 [Example 193, 5-(2-((S)-2-amino-3-(4-(trifluoromethyl)-phenyl)propylamino)thiazol-5-yl)-1H-benzo[d]imidazol-2(3H)-one]"
3,< 50 nM,"N[C@H](CNc1ncc(-c2ccc3cnccc3c2)s1)Cc1ccc2ccccc2c1 [Example 202, N—((S)-2-amino-3-(naphthalen-2-yl)propyl)-5-(isoquinolin-6-yl)thiazol-2-amine]"
4,1000 to 10000 nM,"N[C@H](CNc1ncc(-c2ccc3c(c2)CC(=O)N3)s1)Cc1ccc(O)cc1 [Example 192, 5-(2-((S)-2-amino-3-(4-hydroxyphenyl)propylamino)thiazol-5-yl)indolin-2-one]"
5,1000 to 10000 nM,"Cn1ncc2ccc(-c3cnc(NC[C@@H](N)Cc4ccc(C(F)(F)F)cc4)s3)cc21 [Example 167, N—((S)-2-amino-3-(4-(trifluoromethyl)phenyl)propyl)-5-(1-methyl-1H-indazol-6-yl)thiazol-2-amine]"
6,< 50 nM,"NC(CNc1ncc(-c2ccc3cnccc3c2)s1)Cc1ccc(OC(F)(F)F)cc1 (centres unmarked) [Example 189, N-(-2-amino-3-(4-(trifluoromethoxy)phenyl)propyl)-5-(isoquinolin-6-yl)thiazol-2-amine]"
7,< 50 nM,"N[C@H](CNc1ncc(-c2ccc3cnccc3c2)s1)[C@@H](CO)c1ccc(C(F)(F)F)cc1 [Example 159, (2S,3S)-3-amino-4-(5-(isoquinolin-6-yl)thiazol-2-ylamino)-2-(4-(trifluoromethyl)phenyl)butan-1-ol]"
8,< 50 nM,"Cc1n[nH]c2ccc(-c3sc(NC[C@@H](N)Cc4ccc(C(F)(F)F)cc4)nc3C#CCO)cc12 [Example 149, 3-(2-((S)-2-amino-3-(4-(trifluoromethyl)phenyl)propylamino)-5-(3-methyl-1H-indazol-5-yl)thiazol-4-yl)prop-2-yn-1-ol]"
9,1000 to 10000 nM,"C[C@H](Nc1ncc(-c2ccc3[nH]c(=O)n(C)c3c2)s1)[C@@H](N)Cc1ccc(C(F)(F)F)cc1 [Example 237, 6-(2-((2S,3S)-3-amino-4-(4-(trifluoromethyl)phenyl)butan-2-ylamino)thiazol-5-yl)-1-methyl-1H-benzo[d]imidazol-2(3H)-one]"
10,< 50 nM,N[C@H](CNc1ncc(-c2ccc3cnccc3c2)s1)Cc1ccc(C(F)(F)F)nc1 [Example 170]
11,1000 to 10000 nM,"N[C@H](CNc1nc(C#CC2=CCCC2)c(-c2ccc3cnccc3c2)s1)Cc1ccc(C(F)(F)F)cc1 [Example 147, N—((S)-2-amino-3-(4-(trifluoromethyl)phenyl)propyl)-4-(2-cyclopentenylethynyl)-5-(isoquinolin-6-yl)thiazol-2-amine]"

# The remaining lines, values behind:
row,SMILES,IC50
1,"N[C@H](CNc1nc(C(F)(F)CO)c(-c2ccc3[nH]c(=O)oc3c2)s1)Cc1ccc(C(F)(F)F)cc1 [Example 135, 6-(2-((S)-2-Amino-3-(4-(trifluoromethyl)phenyl)-propylamino)-4-(1,1-difluoro-2-hydroxyethyl)thiazol-5-yl)benzo[d]oxazol-2(3H)-one]",1000 to 10000 nM
2,"N[C@H](CNc1ncc(-c2cc3oc(=O)[nH]c3cc2F)s1)Cc1ccc(C(F)(F)F)cc1 [Example 112, 6-(2-((S)-2-Amino-3-(4-(trifluoromethyl)phenyl)propylamino)thiazol-5-yl)-5-fluorobenzo[d]oxazol-2(3H)-one]",< 50 nM
3,"N[C@H](CNc1ncc(-c2ccc3[nH]c(=O)oc3c2)s1)Cc1c[nH]c2ccccc12 [Example 39, 6-(2-((S)-2-amino-3-(1H-indol-3-yl)propylamino)thiazol-5-yl)benzo[d]oxazol-2(3H)-one]",50 to 1000 nM
4,"Cc1nc(NC[C@@H](N)Cc2ccc(C(F)(F)F)cc2)sc1-c1nc2ccncc2s1 [Example 24, N—((S)-2-amino-3-(4-(trifluoromethyl)phenyl)propyl)-4-methyl-5-(thiazolo[5,4-c]pyridin-2-yl)thiazol-2-amine]",50 to 1000 nM
5,"Nc1cc2cc(-c3cnc(NC[C@@H](N)Cc4ccc(Cl)cc4)s3)ccc2cn1 [Example 76, 6-(2-((S)-2-Amino-3-(4-chlorophenyl)propylamino)thiazol-5-yl)isoquinolin-3-amine]",< 50 nM
6,"Nc1n[nH]c2ccc(-c3cnc(NC[C@@H](N)Cc4c[nH]c5ccccc45)s3)cc12 [Example 37, 5-(2-((S)-2-amino-3-(1H-indol-3-yl)propylamino)thiazol-5-yl)-1H-indazol-3-amine]",1000 to 10000 nM
7,"Nc1n[nH]c2ccc(-c3cnc(NC[C@@H](N)Cc4ccc(C(F)(F)F)cc4)s3)cc12 [Example 50, 5-(2-((S)-2-amino-3-(4-(trifluoromethyl)phenyl)propylamino)thiazol-5-yl)-1H-indazol-3-amine]",50 to 1000 nM
8,"N[C@H](CNc1nc(-c2ccccc2F)c(-c2ccc3c(c2)CC(=O)N3)s1)Cc1ccc(C(F)(F)F)cc1 [Example 107, 5-(2-((S)-2-Amino-3-(4-(trifluoromethyl)phenyl)-propylamino)-4-(2-fluorophenyl)thiazol-5-yl)indolin-2-one]",1000 to 10000 nM
9,"Nc1noc2ccc(-c3cnc(NC[C@@H](N)Cc4ccc(C(F)(F)F)cc4)s3)cc12 [Example 51, 5-(2-((S)-2-amino-3-(4-(trifluoromethyl)phenyl)propylamino)thiazol-5-yl)benzo[d]isoxazol-3-amine]",50 to 1000 nM
10,"C[C@@H](c1ccc(C(F)(F)F)cc1)[C@H](N)CNc1ncc(-c2ccc3[nH]c(=O)oc3c2)s1 [Example 109, 6-(2-((2S,3S)-2-Amino-3-(4-(trifluoromethyl)phenyl)butylamino)-thiazol-5-yl)benzo[d]oxazol-2(3H)-one]",< 50 nM
11,"COc1ccc(CC(N)CNc2ncc(-c3ccc4cnccc4c3)s2)cc1F (centres unmarked) [Example 131, N-(2-Amino-3-(3-fluoro-4-methoxyphenyl)propyl)-5-(isoquinolin-6-yl)thiazol-2-amine]",50 to 1000 nM
12,"N[C@@H](CNc1ncc(-c2ccc3c(c2)CC(=O)N3)s1)Cc1ccc(C(F)(F)F)cc1 [Example 137, 5-(2-((R)-2-Amino-3-(4-(trifluoromethyl)phenyl)propylamino)thiazol-5-1)indolin-2-one]",50 to 1000 nM
13,"N[C@H](CNc1ncc(-c2ccc3cn[nH]c3c2)s1)Cc1ccc(C(F)(F)F)cc1 [Example 48, N—((S)-2-amino-3-(4-(trifluoromethyl)phenyl)propyl)-5-(1H-indazol-6-yl)thiazol-2-amine]",50 to 1000 nM
14,"N[C@H](CNc1ncc(-c2ccc3[nH]c(=O)oc3c2)s1)Cc1ccc(Cl)c(Cl)c1 [Example 115, 6-(2-((S)-2-Amino-3-(3,4-dichlorophenyl)propylamino)thiazol-5-yl)benzo[d]oxazol-2(3H)-one]",< 50 nM
15,"N[C@H](CNc1ncc(-c2nc3ccncc3s2)s1)Cc1ccc(C(F)(F)F)cc1 [Example 32, N—((S)-2-amino-3-(4-(trifluoromethyl)phenyl)propyl)-5-(thiazolo[5,4-c]pyridin-2-yl)thiazol-2-amine]",< 50 nM
